How the values were obtained:
[1] = test system: Experimental Osteoarthritis in Rabbit; assay: Induction of Experimental Osteoarthritis in Rabbit (EOA in Rabbit); format: in vivo; details: conclusion drawn from the expected study
Method: Induction of Experimental Osteoarthritis in Rabbit (“EOA in Rabbit”)
Normal rabbits are anaesthetized and anteromedial incisions of the right knees performed. The anterior cruciate ligaments are visualized and sectioned. The wounds are closed and the animals are housed in individual cages, exercised, and fed ad libitum. Rabbits are given either vehicle (water), a combination comprising valdecoxib and gabapentin, or a combination comprising valdecoxib and 3-(1-aminomethyl-cyclohexylmethyl)-4h-[1,2,4]oxadiazol-5-one hydrochloride (10 rabbits per group). […]
The cartilage changes on the femoral condyles and tibial plateaus are graded separately under a dissecting microscope (Stereozoom, Bausch & Lomb, Rochester, N.Y.). […] The surface area changes are measured and expressed in mm^2. […]
Representative specimens of synovial membrane from the medial and lateral knee compartments are dissected from underlying tissues. […] The average is calculated and considered as a unit for the whole knee. […]
Mean values and SEM are calculated and statistical analysis is done using the Mann-Whitney U-test.

[2] = cited from earlier work

| SMILES | treatment of cartilage damage by the Alpha-2-delta ligand [1] | tolerability ([2]; combined analysis of various clinical studies) | overall upper gastrointestinal safety profile (ulcers, perforations, obstructions and GI bleeds) ([2]; versus conventional NSAIDs such as ibuprofen, diclofenac and naproxen) |
| --- | --- | --- | --- |
| Cl.NCC1(Cc2noc(=O)[nH]2)CCCCC1 [3-(1-aminomethyl-cyclohexylmethyl)-4H-[1,2,4]oxadiazol-5-one hydrochloride] | effective |  |  |
| NCC1(CC(=O)O)CCCCC1 [gabapentin] | effective |  |  |
| Cc1onc(-c2ccccc2)c1-c1ccc(S(N)(=O)=O)cc1 [valdecoxib, 4-(5-methyl-3-phenyl-4-isoxazolyl)-benzenesulfonamide] |  | well tolerated | significantly better |
